Results reported in patent publication US20090048449A1, “RIMONABANT MONOHYDRATE, PROCESS FOR THE PREPARATION THEREOF AND PHARMACEUTICAL COMPOSITIONS CONTAINING SAME” (SANOFI-AVENTIS, priority 2006, published 2009).
One block for each molecule: values may come before it.

Tests used:
Format in all cases: physicochemical
[1] = Flowability of the crystal forms by flowability / compressibility / Carr index; settings: for Carr index: tap and bulk densities in graduated cylinder, data at 10 and 1250 taps, <=20% good powder flow, >21% passable to very difficult
Procedure: The flowability of the rimonabant monohydrate crystal form was measured and compared to that of the rimonabant crystal form II. The flowability of the crystal forms is measured by the flowability index or compressibility index or Carr index as described in R. L. Carr: Evaluation of flow properties of solids, Chem. Eng., 1965, 163-168 and also in the European Pharmacopeia.
The flowability index is calculated according to the following equation: IC=100×(ρt−ρb)/ρt where ρt is the tap density and ρb is the bulk density. This index is considered to be good if it is less than 20.
The densities are determined experimentally by packing the product into a graduated cylinder according to the procedure described in the European Pharmacopeia. The densities are determined after 10, 500, 1250 and 2500 taps. The Carr index is determined from the data measured at 10 and 1250 taps.
A Carr index less than or equal to 20% is considered as corresponding to a good powder flow, whereas a Carr index greater than 21% is considered as corresponding to a passable, even difficult or very difficult, powder flow.

[2] = Filterability: specific resistance of the filter cake; settings: filtering crystals from the solution in which they were formed; comparison with form I and form II
From the text: The improvement in filterability allows the filtration step to be shortened and leads to a significant improvement in the texture of the filter cake which is characterized by a low moisture content of the powder before drying and a low degree of residual solvent before drying. The resulting powder after drying has improved physical properties, especially in terms of flowability and therefore of handleability.

[3] = Water vapor sorption/desorption at 25° C. (SGA100 analyzer); settings: sorption cycle 0-100% RH at 25° C. after degassing the monohydrate at 80° C. for 3 hours (water of hydration lost)
Procedure: Analysis of water vapor sorption/desorption measurements was carried out on the rimonabant monohydrate crystal form on a SGA100 analyzer sold by VTI (USA). It was operated between 0% and 100% relative humidity at 25° C. after degassing the monohydrate form at 80° C. for 3 hours. The rimonabant monohydrate loses its water of hydration molecule during drying at 80° C. During the water vapor sorption cycle, the conversion of the rimonabant into rimonabant monohydrate occurs starting from 40% relative humidity. The sorption/desorption isotherm is represented in FIG. 4.

Flowability corresponding to the Carr index (in words) ([1]; Carr index measured, only class in words printed): very difficult flowability
Compound: Cc1c(C(=O)NN2CCCCC2)nn(-c2ccc(Cl)cc2Cl)c1-c1ccc(Cl)cc1 [rimonabant crystal form I, N-piperidino-5-(4-chlorophenyl)-1-(2,4-dichlorophenyl)-4-methylpyrazole-3-carboxamide]

Carr index [1]: around 38%
Compound: Cc1c(C(=O)NN2CCCCC2)nn(-c2ccc(Cl)cc2Cl)c1-c1ccc(Cl)cc1 [rimonabant crystal form II, N-piperidino-5-(4-chlorophenyl)-1-(2,4-dichlorophenyl)-4-methylpyrazole-3-carboxamide]

Carr index [1]: 20%
Compound: Cc1c(C(=O)NN2CCCCC2)nn(-c2ccc(Cl)cc2Cl)c1-c1ccc(Cl)cc1 [rimonabant monohydrate crystal form]
Specific resistance of the filter cake [2]: less than that measured for rimonabant crystal form I and crystal form II

Relative humidity from which conversion of rimonabant into rimonabant monohydrate occurs [3]: ≥ 40 % relative humidity
Compound: Cc1c(C(=O)NN2CCCCC2)nn(-c2ccc(Cl)cc2Cl)c1-c1ccc(Cl)cc1 [rimonabant, N-piperidino-5-(4-chlorophenyl)-1-(2,4-dichlorophenyl)-4-methylpyrazole-3-carboxamide]
